Consider 52 compounds from patent US10710986B2, “PD-1/PD-L1 inhibitors” (Gilead Sciences, Inc., priority 2018, dated 2020).

For the test, the target named is PD-1/PD-L1 (Homo sapiens (Human), UniProt Q9NZQ7). Put plainly: PD-1/PD-L1 biochemical protein-protein interaction assay (ALPHA). The note with it: 0.3 nM His tagged PD-L1, 2.5 nM biotinylated Fc-PD-1, 60 minutes at 25° C., read-out: IC50 PD-L1-PD1.
PD-1/PD-L1, sequence (Q9NZQ7 19-238): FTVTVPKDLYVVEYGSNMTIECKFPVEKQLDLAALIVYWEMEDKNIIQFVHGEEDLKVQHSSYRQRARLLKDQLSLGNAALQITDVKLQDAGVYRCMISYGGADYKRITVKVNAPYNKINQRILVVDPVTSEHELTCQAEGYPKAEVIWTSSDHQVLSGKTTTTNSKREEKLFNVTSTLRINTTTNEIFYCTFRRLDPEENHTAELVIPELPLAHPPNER
Usually IC50 stands for the concentration that inhibits the measured activity by half. As for `COc1nc(-c2cccc(-c3cccc(-c4cnc5c(CNC[C@H]6C[C@H](O)C6)cn(C)c5n4)c3Cl)c2Cl)cnc1CNC[C@H]1CCC(=O)N1` [compound 603], the IC50 turned out to be 0.073 nM.

On to `COc1nc(-c2cccc(-c3cccc(-c4cnc5c(CN6CC7(C6)CN(C(C)=O)C7)cn(C)c5n4)c3Cl)c2Cl)cnc1CNC[C@H]1CCC(=O)N1` [compound 604], for which the IC50 was found to be 0.064 nM.

For the compound `COc1nc(-c2cccc(-c3cccc(-c4cnc5c(CN6CC7(CNC(=O)C7)C6)cn(C)c5n4)c3Cl)c2Cl)cnc1CNC[C@H]1CCC(=O)N1` [compound 605], the IC50 worked out at 0.113 nM.

As to `COc1nc(-c2cccc(-c3cccc(-c4cnc5c(CNC[C@@H]6CCC(=O)N6)cn(C)c5n4)c3Cl)c2Cl)cnc1CNC[C@H]1CCC(=O)N1` [compound 606], the IC50 was found to be 0.077 nM.

On to `COc1nc(-c2cccc(-c3cccc(-c4cnc5c(CN6CC7(CNC(=O)C7)C6)cn(C)c5n4)c3Cl)c2Cl)cnc1CN1CC2(CNC(=O)C2)C1` [compound 607], for which the IC50 was 0.064 nM.

For `CCn1cc(CN2CC3(C2)CN(C(C)=O)C3)c2ncc(-c3cccc(-c4cccc(-c5cnc(CN6CC7(C6)CN(C(C)=O)C7)c(OC)n5)c4Cl)c3Cl)nc21` [compound 608], the IC50 was 0.064 nM.

For `CCn1cc(CN2CC3(CNC(=O)C3)C2)c2ncc(-c3cccc(-c4cccc(-c5cnc(CN6CC7(CNC(=O)C7)C6)c(OC)n5)c4Cl)c3Cl)nc21` [compound 609], the IC50 is 0.079 nM.

In the case of `CCn1cc(CN2CC3(CCC(=O)N3)C2)c2ncc(-c3cccc(-c4cccc(-c5cnc(CN6CC7(CCC(=O)N7)C6)c(OC)n5)c4Cl)c3Cl)nc21` [compound 610], the IC50 worked out at 0.313 nM.

Regarding `CCn1cc(CN2CC(O)C2)c2ncc(-c3cccc(-c4cccc(-c5cnc(CN6CC(O)C6)c(OC)n5)c4Cl)c3Cl)nc21` [compound 611], the IC50 worked out at 0.21 nM.

As to `COc1nc(-c2cccc(-c3cccc(-c4cnc5c(CN6CC7(C6)CN(C(C)=O)C7)cn(C)c5n4)c3Cl)c2Cl)cnc1CN1CC2(C1)CN(C(C)=O)C2` [compound 612], the IC50 turned out to be 0.064 nM.

Turning to `COc1nc(-c2cccc(-c3cccc(-c4cnc5c(CN6CC7(CCC(=O)N7)C6)cn(C)c5n4)c3Cl)c2Cl)cnc1CN1CC2(CCC(=O)N2)C1` [compound 613], the IC50 is 0.182 nM.

`COc1nc(-c2cccc(-c3cccc(-c4cnc(CNC[C@@H]5CCC(=O)N5)c(OC)n4)c3F)c2Cl)ccc1CNC[C@@H]1CCC(=O)N1` [compound 614]: the IC50 worked out at 0.079 nM.

As for `COc1nc(-c2cccc(-c3cccc(-c4cnc(CNCCO)c(OC)n4)c3F)c2Cl)ccc1CNCCO` [compound 615], the IC50 was 0.291 nM.

In the case of `COc1nc(-c2cccc(-c3cccc(-c4cnc(CN5CC[C@@H](CO)C5)c(OC)n4)c3F)c2Cl)ccc1CN1CC[C@@H](CO)C1` [compound 616], the IC50 was 0.069 nM.

As for `COc1nc(-c2cccc(-c3cccc(-c4cnc(CN5CC6(C5)CN(C(C)=O)C6)c(OC)n4)c3F)c2Cl)ccc1CN1CC2(C1)CN(C(C)=O)C2` [compound 617], the IC50 amounted to 0.064 nM.

With `COc1nc(-c2cccc(-c3cccc(-c4cnc(CN5CC6(CCC(=O)N6)C5)c(OC)n4)c3F)c2Cl)ccc1CN1CC2(CCC(=O)N2)C1` [compound 618], the IC50 was found to be 0.064 nM.

`COc1nc(-c2cccc(-c3cccc(-c4cnc(CN5CC(O)C5)c(OC)n4)c3F)c2Cl)ccc1CN1CC(O)C1` [compound 619]: the half-inhibitory concentration (IC50) stood at 0.178 nM.

For the compound `COc1nc(-c2cccc(-c3cccc(-c4cnc(CNC[C@@H]5CCC(=O)N5)c(OC)n4)c3Cl)c2Cl)cnc1CNCCOc1ccccn1` [compound 620], the IC50 worked out at 0.101 nM.

For `COc1nc(-c2cccc(-c3cccc(-c4cnc(CN5CC(C)(N)C5)c(OC)n4)c3Cl)c2Cl)cnc1CN1CC(C)(N)C1` [compound 621], the IC50 came out at 1.05 nM.

Take `COc1nc(-c2cccc(-c3cccc(-c4cnc(CN5CC(C)(N)C5)c(OC)n4)c3Cl)c2Cl)cnc1CNC[C@@H]1CCC(=O)N1` [compound 622]: the IC50 was determined as 0.26 nM.

`COc1nc(-c2cccc(-c3cccc(-c4cnc(CN5CC[C@H](CO)C5)c(OC)n4)c3Cl)c2Cl)cnc1CN1CC[C@H](CO)C1` [compound 624]: the IC50 worked out at 0.152 nM.

Take `COc1nc(-c2cccc(-c3cccc(-c4cnc(CN5CC[C@H](CO)C5)c(OC)n4)c3Cl)c2Cl)cnc1CNC[C@@H]1CCC(=O)N1` [compound 625]: the IC50 is 0.074 nM.

Take `COc1nc(-c2cccc(-c3cccc(-c4cnc(CN5CC[C@@H](CO)C5)c(OC)n4)c3Cl)c2Cl)cnc1CN1CC[C@@H](CO)C1` [compound 626]: the IC50 is 0.064 nM.

`COc1nc(-c2cccc(-c3cccc(-c4cnc(CN5CC[C@@H](CO)C5)c(OC)n4)c3Cl)c2Cl)cnc1CNC[C@@H]1CCC(=O)N1` [compound 627]: the IC50 was 0.081 nM.

Turning to `COc1nc(-c2cccc(-c3cccc(-c4cc(C)c(CNC[C@@H]5CCC(=O)N5)c(OC)n4)c3Cl)c2Cl)cnc1CNC[C@@H]1CCC(=O)N1` [compound 628], the IC50 worked out at 0.064 nM.

For `COc1nc(-c2cccc(-c3cccc(-c4cnc(CN5CC(C)(O)C5)c(OC)n4)c3Cl)c2Cl)cnc1CN1CC(O)C1` [compound 629], the IC50 is 0.083 nM.

As for `COc1nc(-c2cccc(-c3cccc(-c4cnc(CN)c(OC)n4)c3Cl)c2Cl)ccc1CNC[C@@H]1CCC(=O)N1` [compound 630], the IC50 is 0.437 nM.

Take `COc1nc(-c2cccc(-c3cccc(-c4cnc(CN5CC(C)(O)C5)c(OC)n4)c3Cl)c2Cl)ccc1CNC[C@@H]1CCC(=O)N1` [compound 631]: the IC50 was found to be 0.064 nM.

Take `COc1nc(-c2cccc(-c3cccc(-c4cnc(CN5CC6(C5)CN(C(C)=O)C6)c(OC)n4)c3Cl)c2Cl)ccc1CNC[C@@H]1CCC(=O)N1` [compound 632]: the IC50 was found to be 0.172 nM.

Turning to `COc1nc(-c2cccc(-c3cccc(-c4cnc(CN5CC6(CNC(=O)C6)C5)c(OC)n4)c3Cl)c2Cl)ccc1CNC[C@@H]1CCC(=O)N1` [compound 633], the IC50 was 0.064 nM.

`COc1nc(-c2cccc(-c3cccc(-c4cnc(CN5CCC(CO)(CO)C5)c(OC)n4)c3Cl)c2Cl)cnc1CN1CCC(CO)(CO)C1` [compound 634]: the IC50 came to 0.064 nM.

Take `COc1nc(-c2cccc(-c3cccc(-c4cnc(CN5CC(C(C)(C)O)C5)c(OC5CC5)n4)c3Cl)c2Cl)ccc1CN1CC(C(C)(C)O)C1` [compound 635]: the concentration for half-maximal inhibition (IC50) was 0.098 nM.

In the case of `COc1nc(-c2cccc(-c3cccc(-c4cnc(CN5CC6(CCC(=O)N6)C5)c(OC5CC5)n4)c3Cl)c2Cl)ccc1CN1CC2(CCC(=O)N2)C1` [compound 636], the IC50 was found to be 0.12 nM.

With `COc1nc(-c2cccc(-c3cccc(-c4cnc(CN5CC6(CNC(=O)C6)C5)c(OC5CC5)n4)c3Cl)c2Cl)ccc1CN1CC2(CNC(=O)C2)C1` [compound 637], the IC50 is 0.134 nM.

With `COc1nc(-c2cccc(-c3cccc(-c4cnc(CNC[C@@H]5CCC(=O)N5)c(OC5CC5)n4)c3Cl)c2Cl)ccc1CNC[C@@H]1CCC(=O)N1` [compound 638], the 50% inhibitory concentration (IC50) was 0.079 nM.

In the case of `COc1nc(-c2cccc(-c3cccc(-c4cnc(CN[C@H]5C[C@@H](C(N)=O)C5)c(OC)n4)c3Cl)c2Cl)ccc1CNC[C@@H]1CNC(=O)C1` [compound 639], the IC50 was 0.066 nM.

As for `COc1nc(-c2cccc(-c3cccc(-c4cnc(CN[C@H]5CCC[C@H]5O)c(OC)n4)c3Cl)c2Cl)ccc1CNC[C@@H]1CNC(=O)C1` [compound 640], the IC50 amounted to 0.167 nM.

Turning to `COc1nc(-c2cccc(-c3cccc(-c4cnc(C5=NCCN5)c(OC)n4)c3Cl)c2Cl)ccc1CN1CC2(CCC(=O)N2)C1` [compound 641], the concentration for half-maximal inhibition (IC50) amounted to 0.064 nM.

`COc1nc(-c2cccc(-c3cccc(-c4cnc(C5=NCCN5)c(OC)n4)c3Cl)c2Cl)ccc1CN1CC(C)(O)C1` [compound 642]: the IC50 turned out to be 0.064 nM.

As for `COc1nc(-c2cccc(-c3cccc(-c4cnc(C5=NC[C@H](C)N5)c(OC)n4)c3Cl)c2Cl)ccc1CNC[C@@H]1CCC(=O)N1` [compound 643], the IC50 turned out to be 0.064 nM.

As to `COc1nc(-c2cccc(-c3cccc(-c4cnc(C5=NC[C@@H](C)N5)c(OC)n4)c3Cl)c2Cl)ccc1CNC[C@@H]1CCC(=O)N1` [compound 644], the IC50 worked out at 0.093 nM.

For the compound `COc1nc(-c2cccc(-c3cccc(-c4cnc(C5=NCCN5)c(OC)n4)c3Cl)c2Cl)ccc1CNC[C@@H]1CCC(=O)N1` [compound 645], the IC50 came to 0.064 nM.

As for `COc1nc(-c2cccc(-c3cccc(-c4cnc(C5=NC[C@H](C)N5)c(OC)n4)c3Cl)c2Cl)cnc1CNC[C@@H]1CCC(=O)N1` [compound 646], the IC50 worked out at 0.064 nM.

On to `COc1nc(-c2cccc(-c3cccc(-c4cnc(C5=NC[C@@H](C)N5)c(OC)n4)c3Cl)c2Cl)cnc1CNC[C@@H]1CCC(=O)N1` [compound 647], for which the IC50 was determined as 0.064 nM.

For `COc1nc(-c2cccc(-c3cccc(-c4cnc(CN[C@H]5CC[C@@H](CO)C5)c(OC)n4)c3Cl)c2Cl)cnc1CNC[C@@H]1CCC(=O)N1` [compound 648], the IC50 stood at 0.08 nM.

Take `COc1nc(-c2cccc(-c3cccc(-c4cnc(CN5CC6(CCC(=O)N6)C5)c(OC)n4)c3Cl)c2F)ccc1CN1CC2(CCC(=O)N2)C1` [compound 649]: the IC50 came out at 0.128 nM.

With `COc1nc(-c2cccc(-c3cccc(-c4cc(C)c(CN5CC6(CCC(=O)N6)C5)c(OC)n4)c3F)c2Cl)cnc1CN1CC2(CCC(=O)N2)C1` [compound 650], the IC50 worked out at 0.064 nM.

As to `COc1nc(-c2cccc(-c3cccc(-c4cc(C)c(CN5CC6(CNC(=O)C6)C5)c(OC)n4)c3F)c2Cl)cnc1CN1CC2(CNC(=O)C2)C1` [compound 651], the IC50 was 0.064 nM.

In the case of `COc1nc(-c2cccc(-c3cccc(-c4cc(C)c(CNC[C@H]5C[C@H](O)C5)c(OC)n4)c3Cl)c2Cl)cnc1CNC[C@@H]1CCC(=O)N1` [compound 652], the half-maximal inhibitory concentration (IC50) came to 0.12 nM.

Regarding `COc1nc(-c2cccc(-c3cccc(-c4cc(C)c(CN5CC6(C5)CN(C(C)=O)C6)c(OC)n4)c3Cl)c2Cl)cnc1CNC[C@@H]1CCC(=O)N1` [compound 653], the IC50 is 0.064 nM.

As for `COc1nc(-c2cccc(-c3cccc(-c4cc(C)c(CN5CC(C(=O)O)C6(CCOC6)C5)c(OC)n4)c3Cl)c2Cl)cnc1CNC[C@@H]1CCC(=O)N1` (stereo partly shown) [compound 654], the IC50 worked out at 0.071 nM.

In the case of `COc1nc(-c2cccc(-c3cccc(-c4cc(C)c(CN5C[C@@H]6CCC[C@]6(C(=O)O)C5)c(OC)n4)c3Cl)c2Cl)cnc1CNC[C@@H]1CCC(=O)N1` [compound 655], the IC50 came to 0.064 nM.
